Measurements taken from patent US12251373B2, “Compounds and methods of treating retinal degeneration” (CASE WESTERN RESERVE UNIVERSITY, priority 2017, dated 2025).

Assays:
rod opsin = target: T1, rod opsin (Mus musculus, UniProt P15409); test: cAMP quantification assay in NIH3T3-(WT-opsin/GFP) cells; format: cell-based
T1 construct: expressed in transfected cells
Source text: Three NIH3T3 stable cell lines, NIH3T3-(WT-opsin/GFP), NIH3T3-(P23H-opsin/GFP), and NIH3T3-(GFP) were previously generated which stably express mouse WT opsin and GFP; P23H opsin and GFP; and only GFP, respectively. GFP is expressed separately from opsin in these cell lines. NIH3T3 cells were from ATCC. DNA constructs for generating these stable cell lines were confirmed by Sanger sequencing. Expression of GFP was confirmed by green fluorescence imaging, and expression of P23H and WT opsin were confirmed by immunoblots.
NIH3T3-(Opsin/GFP) and NIH3T3-(GFP) were plated in two 96-well plates at a density of 50,000 cells per well in 100 μl of DMEM medium containing 10% FBS and antibiotics. After 24 h, cells were washed with Krebs Ringer bicarbonate buffer containing glucose (KRBG), and incubated with KRBG buffer containing 100 μM cAMP specific phosphodiesterase inhibitor, Ro 20-1724 (Tocris, UK) at RT for 10 min. […] While one plate then was wrapped with aluminum foil, the second plate was exposed to regular room light. Both plates were kept in a cell culture incubator for 15 min at 37° C. in 5% CO2. Levels of accumulated cAMP were detected with the Catchpoint cAMP fluorescent assay kit (Molecular Devices, Sunnyvale, CA USA) and the fluorescence with excitation/emission at 530/590 nm was read with a Flexstation3 plate reader (Molecular Devices) as described in the manufacturer's protocol.

bovine rod opsin = target: T2, bovine rod opsin (Bos taurus, UniProt P02699); test: Gt activation assay; format: biochemical
T2 construct: Constitutive activity of bovine opsin in disc membranes; from tissue; host or cells: bovine ROS membranes (opsin membranes and Gt both from bovine ROS)
T2 sequence (P02699 whole entry): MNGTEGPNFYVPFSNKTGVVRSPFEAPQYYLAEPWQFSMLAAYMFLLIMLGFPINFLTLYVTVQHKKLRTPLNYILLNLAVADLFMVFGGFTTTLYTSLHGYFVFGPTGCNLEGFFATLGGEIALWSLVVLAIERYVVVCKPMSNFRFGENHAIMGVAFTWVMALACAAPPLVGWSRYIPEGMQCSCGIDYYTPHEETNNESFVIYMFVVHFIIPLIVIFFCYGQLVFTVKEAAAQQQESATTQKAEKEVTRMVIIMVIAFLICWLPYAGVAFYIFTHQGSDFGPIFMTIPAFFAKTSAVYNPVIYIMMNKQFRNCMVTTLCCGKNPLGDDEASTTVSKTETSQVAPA
Method: Gt was extracted and purified from frozen bovine ROS membranes as described in Preparation of Opsin Membranes. The intrinsic increase in the fluorescence from Gtα was measured with a L55 luminescence spectrophotometer (PerkinElmer Life Sciences) using an excitation and emission wavelengths of 300 and 345 nm, respectively. […] DMSO-treated opsin membranes were used to obtain a baseline for the basal activity of opsin. The molar ratio of opsin to Gt was 1:10, with opsin at a concentration of 100 nM and Gt at 1000 nM. […] This step was followed by the addition of 300 μM GTPγS (Sigma-Aldrich) to determine the GTPγS-induced complex dissociation and corresponding fluorescence changes. Gt activation rates were determined and plotted for the first 100 s of the Gt activation assay.

bovine opsin = target: T3, bovine opsin (Bos taurus, UniProt P02699); test: Isorhodopsin pigment regeneration of opsin in ROS disc membranes (absorption spectroscopy); format: biochemical; conditions: for competition with 9-cis-retinal for isorhodopsin regeneration (absorption at 495 nm): with 5 μM 9-cis-retinal, simultaneously or sequentially
T3 construct: ROS membranes were isolated from bovine retinas under dim red light; from tissue; host or cells: bovine retina rod outer segment (ROS) membranes, bleached with hydroxylamine
T3 sequence (P02699 whole entry): as above
Method: ROS membranes were isolated from bovine retinas under dim red light. To remove membrane associated proteins, ROS membranes were washed with a hypotonic buffer composed of 5 mM bis-tris propane (BTP) and 1 mM EDTA, pH 7.5, followed by gentle homogenization with subsequent centrifugation at 25,000 g for 30 min. This procedure was repeated four times. The final membrane pellet was suspended in 10 mM sodium phosphate buffer, pH 7.0, and 50 mM hydroxylamine to a 3 mg mL^−1 concentration of rhodopsin, placed on ice and illuminated with a 150 Watt bulb for 30 min. Membranes were pelleted by centrifugation at 16,000 g for 5 min and then washed four times with 10 mM sodium phosphate buffer, pH 7.0, and 2% bovine serum albumin followed by 4 washes with 10 mM sodium phosphate buffer, pH 7.0, and 2 washes with 20 mM BTP, pH 7.5, and 100 mM NaCl. The concentration of opsin was measured with a UV-visible spectrophotometer and quantified using the absorption coefficient ε280 nm=81,200 M^−1 cm^−1.
ROS membranes containing opsin were suspended in buffer composed of 20 mM BTP, pH 7.5, and 100 mM NaCl at a final concentration of 2.5 μM. […] Membranes then were solubilized with 20 mM DDM for 10 min at RT and UV-visible spectra of these samples were measured. To follow the kinetics of isorhodopsin regeneration, opsin membranes were treated with 0, 20 or 60 μM YC-001 for 15 min at RT. […] UV-visible spectra of the samples were measured every 2 min until 2 h of reaction time at RT. Each condition was repeated three times. The time course of isorhodopsin regeneration was fitted by a second order exponential decay and apparent half-lives were obtained at the time when reaction reached half of the end-point product.
Alternatively, opsin incubated with the above ligands was purified by 1D4-immunoaffinity chromatography. […] After washing, opsin samples were eluted by addition of 1D4 peptide ([…]) (SEQ ID NO: 1) to the above buffer and their spectra were measured with a UV-visible spectrophotometer.

T1 sequence (P15409 whole entry): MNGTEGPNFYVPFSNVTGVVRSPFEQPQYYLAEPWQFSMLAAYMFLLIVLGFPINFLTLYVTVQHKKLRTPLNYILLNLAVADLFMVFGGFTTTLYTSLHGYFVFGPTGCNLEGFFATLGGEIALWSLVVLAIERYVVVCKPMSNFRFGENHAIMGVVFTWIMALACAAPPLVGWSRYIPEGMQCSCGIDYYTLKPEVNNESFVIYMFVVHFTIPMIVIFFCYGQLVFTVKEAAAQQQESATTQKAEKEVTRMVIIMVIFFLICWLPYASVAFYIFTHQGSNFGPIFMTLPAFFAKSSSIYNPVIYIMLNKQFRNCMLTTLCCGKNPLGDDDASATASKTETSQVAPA

| Structure (SMILES) | cAMP level upon light exposure (rod opsin; NIH3T3-(WT-opsin/GFP) cells, light) | fold increase in EC50 of 9-cis-retinal dose-response curve (rod opsin; with 40 μM YC-001 co-treatment vs 9-cis-retinal alone) [fold] | ln(kinitial), rate of Gt activation of regenerated isorhodopsin upon illumination (bovine rod opsin; 40 μM 9-cis-retinal alone) | competition with 9-cis-retinal for isorhodopsin regeneration (absorption at 495 nm) (bovine opsin) | cAMP levels, co-treated with 1 μM 9-cis-retinal under light (rod opsin; FIG. 5c) | EC50 (rod opsin; either in the dark or light, read-out: EC50 of dose-dependent increase in cAMP levels) [µM] | ln(kinitial), initial rate of Gt activation for opsin (bovine rod opsin; 40 μM compound, basal opsin activity) | ln(kinitial), rate of Gt activation of regenerated isorhodopsin upon illumination (bovine rod opsin; co-treated with 40 μM 9-cis-retinal and 40 μM YC-001) | total amount of regenerated isorhodopsin pigment at the end of the reaction (bovine opsin; FIG. 4d) | kinetics of isorhodopsin pigment regeneration (bovine opsin; YC-001 then 9-cis-retinal, FIG. 4d) | reversibility of interaction with opsin (bovine opsin; after opsin/isorhodopsin purification) |
| --- | --- | --- | --- | --- | --- | --- | --- | --- | --- | --- | --- |
| CC1=C(/C=C/C(C)=C\C=C\C(C)=C\C=O)C(C)(C)CCC1 [9-cis-retinal, reference compound] | significantly reduced cAMP level | 3 | −4.6 | – | – | – | – | – | – | – | – |
| O=C(CCCCCN1C(=O)c2cccc3cccc(c23)C1=O)NO [Scriptaid, reference compound] | – | – | – | does not compete with 9-cis-retinal | – | – | – | – | – | – | – |
| O=C1OCC(c2ccc(Cl)s2)=C1c1cccs1 [YC-001] | – | – | – | less isorhodopsin was generated | dose-dependent elevation in cAMP levels | 8.22 | −6.1 | −4.9 | didn't affect the total amount | slowed down the kinetics of pigment regeneration | reversible |
